Laboratory results: patent US11285159B2 (AbbVie Inc., priority 2019, dated 2022)
Read-outs that look alike come from different tables or passages of the source. Blank lines part the entries; values can stand above or below the compound they belong to.

Legend:
[1] = test system: myeloproliferative neoplasm patient samples cultured ex vivo and myeloproliferative neoplasm-derived cell lines bearing the activating JAK-2 V617F mutation; details: cited from earlier work
[2] = test system: myeloproliferative neoplasm cells; endogenous erythroid colonies representing malignant PV clones; details: cited from earlier work
[3] = co-administration of navitoclax with rifampin; assay type: in vivo, human; details: 600 mg once daily rifampin for 4 days; 11 subjects with cancer
Source text: Increased dosage should be made with frequent monitoring of safety and efficacy.

[4] = test system: subjects with primary or secondary myelofibrosis; assay: Phase 2 study of navitoclax in combination with ruxolitinib (Example 1)
Source text: Treatment continued until the end of clinical benefit, unacceptable toxicity, or discontinuation. The primary efficacy endpoint was percentage reduction in splenic volume from baseline. Secondary endpoints included effect on total symptom score (TSS), overall response rate, rate of anemia response, improvement in bone marrow fibrosis, and safety profile.
For this study, inclusion criteria included the following: • 1. Subject must be ≥18 years of age. • 2. Subject has documented diagnosis of Intermediate or High-Risk Primary Myelofibrosis, Post-Polycythemia Vera Myelofibrosis (PPV-MF), or Post-Essential Thrombocythemia Myelofibrosis (PET-MF) as defined by the World Health Organization classification. • 3. Subject must be ineligible or unwilling to undergo stem cell transplantation at time of study entry. • 4. Subject must have an Eastern Cooperative Oncology Group (ECOG) Performance Score of 0, 1, or 2. • 5. […] Prior treatment with JAK-2 inhibitor for at least 12 weeks • b. Prior treatment with JAK-2 inhibitor for at least 28 days complicated by any of the following: • i. […] Splenic irradiation within 6 months prior to screening, or prior splenectomy. • 2. Leukemic transformation (>10% blasts in peripheral blood or bone marrow biopsy). • 3. Subject is currently on medications that interfere with coagulation (including warfarin) or platelet function with the exception of low dose aspirin (up to 100 mg) and low-molecular-weight heparin (LMWH). • 4. Prior therapy with a BH3 mimetic compound. • 5.
Subjects needed to have received ruxolitinib therapy for at least 12 weeks prior to study enrollment without interruption, have splenomegaly as defined by a spleen palpable ≥5 cm below costal margin and be currently on a stable dose of ≥10 mg BID of ruxolitinib.

[5] = test system: platelets; assay: exposure-platelet response model, parameter estimation (NONMEM); parameters: species or system human
Source text: The model was based on established models described in the literature (Kaefer, A., Yang, J., Noertersheuser, P. et al. Cancer Chemother Pharmacol (2014) 74: 593. doi:10.1007/s00280-014-2530-2530; and Friberg, Lena E., et al. “Model of chemotherapy-induced myelosuppression with parameter consistency across drugs. “Journal of clinical oncology 20.24 (2002): 4713-4721, both references hereby incorporated by reference in their entireties).
PK model for ruxolitinib was described by a two-compartment model with a lag-time in absorption (Equations 2a through 2c).
The time course of platelet response was modeled using a semi-physiological model that comprised a progenitor cell compartment, three transition compartments representing the maturation chain in the bone marrow and a peripheral blood compartment (see FIG. 2). A feedback system was used in this model to describe the increase in the maturation rate in bone marrow when the platelet level in the blood compartment is below baseline and decrease in the maturation rate when the platelet level in blood is above baseline. […] Equations 3 to 9 represent the PD model.
The model is initialized at 0 for the PK related compartments, at POOL for the PROLIF compartment, and at 1 for the maturation and circulation compartments. The platelet prediction is obtained by (Baseline Platelets)×PLT1×PLT2. The rates of the Platelet1 model are set to be the same ktrans=kin=kout due to a steady state assumption without treatment interference.
A factor was included on the baseline platelet count such that baseline(t=−84 days)=factor×baseline(t=0 days)
This yields a relative pseudo baseline at initiation of ruxolitinib (referred to as ‘ruxolitinib factor’ on baseline platelet count). […] The first 56 days of data were fitted to avoid influence of long-term disease effects on the model.
No inter-individual variability was estimated on ruxolitinib EC50 since limited data precluded its appropriate estimation.

[6] = test system: spleen volume; assay: exposure-spleen volume response model, parameter estimation (NONMEM); parameters: species or system human; details: spleen volume inhibition; R/R MF, cohort 1a data
Source text: Spleen volume data up to only week 40 was used in the model to improve model predictability. […] Inter-individual variability with full correlation matrix was incorporated on estimated baseline spleen volume, kout, EC50NAV and EC50RUX using exponential function and the residual variability was characterized using combined proportional and additive error model.
At baseline, the rates of the spleen volume model are set to be the same kin=kout due to a theoretical steady state assumption without treatment interference. This leads to an initial condition for the SV compartment of 1, where SV predictions are derived by multiplying this compartment with baseline. Disease progression was included in the model with the factor “Eprog” on “kin”.

[7] = target: T1, BCL-W (Homo sapiens, UniProt Q92843); details: cited from earlier work
T1 sequence (Q92843 1-193): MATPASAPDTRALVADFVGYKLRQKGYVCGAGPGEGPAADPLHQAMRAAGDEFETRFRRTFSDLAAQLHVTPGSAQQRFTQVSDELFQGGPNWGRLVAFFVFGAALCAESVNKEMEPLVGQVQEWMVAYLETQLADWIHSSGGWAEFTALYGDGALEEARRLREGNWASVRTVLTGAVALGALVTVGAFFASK

[8] = test system: human tumor cell lines derived from small cell lung carcinomas and lymphoid malignancies; details: read-out: EC50, mechanism-based cytotoxicity; cited from earlier work
[9] = test system: 22 cell lines consisting of multiple leukemia and lymphoma types spanning both B-cell and T-cell malignancies; details: cited from earlier work
[10] = test system: resistance to JAK-2 inhibitors associated with BCL-XL elevation; details: cited from earlier work
[11] = test system: tumors in mice bearing the Eμ-TEL-JAK-2 transgene or PDX mice bearing JAK-2-mutated B-ALL cells; details: cited from earlier work
[12] = 400 mg once daily ketoconazole; 10 subjects with cancer; cited from earlier work
[13] = test system: platelets; details: effect on platelets, cited from earlier work; for Ruxolitinib EC50: fixed to published value
[14] = test system: patients with intermediate or high-risk primary or secondary myelofibrosis; details: ruxolitinib monotherapy; cited from earlier work
[15] = test system: spleen volume; details: spleen volume inhibition, fixed to a published value, cited from earlier work
[16] = 22 subjects with ruxolitinib dose reduction

SMILES: CN(C)CC[C@H](CSc1ccccc1)Nc1ccc(S(=O)(=O)NC(=O)c2ccc(N3CCN(Cc4ccccc4-c4ccc(Cl)cc4)CC3)cc2)cc1[N+](=O)[O-] [ABT-737]
cell killing activity [1]: cell killing activity
endogenous erythroid colonies growing in the absence of erythropoietin ([2]; 500 nM ABT-737): significantly inhibited
endogenous erythroid colonies growing in the absence of erythropoietin ([2]; 100-300 nM ABT-737 combined with a JAK-2 inhibitor): further suppressed
proliferation of myeloproliferative neoplasm cells [2]: ability to block the proliferation

SMILES: CC1(C)CCC(c2ccc(Cl)cc2)=C(CN2CCN(c3ccc(C(=O)NS(=O)(=O)c4ccc(N[C@H](CCN5CCOCC5)CSc5ccccc5)c(S(=O)(=O)C(F)(F)F)c4)cc3)CC2)C1 [Navitoclax, 4-(4-{[2-(4-chlorophenyl)-5,5-dimethyl-1-cyclohexen-1-yl]methyl}-1-piperazinyl)-N-[(4-{[(2R)-4-(4-morpholinyl)-1-(phenylsulfanyl)-2-butanyl]amino}-3-[(trifluoromethyl)sulfonyl]phenyl)sulfonyl]benzamide]
decrease of navitoclax AUC∞ [3]: 41%
decrease of navitoclax Cmax [3]: 16%
Dose Delay/Interruption: More Than One Interruption, % ([4]; human, in vivo): (39.1) %
Dose Delay/Interruption: No Interruption, % ([4]; human, in vivo): (34.8) %
Dose Delay/Interruption: Only One Interruption, % ([4]; human, in vivo): (26.1) %
Dose Reduction: More Than One Dose Reduction, % ([4]; human, in vivo): (39.1) %
Dose Reduction: No Dose Reduction, % ([4]; human, in vivo): (17.4) %
Dose Reduction: Only One Dose Reduction, % ([4]; human, in vivo): (43.5) %
Reasons for Dose Delay/Interruption: Adverse Events, % ([4]; human, in vivo): (52.2) %
Reasons for Dose Delay/Interruption: Anemia, % ([4]; human, in vivo): (4.3) %
Reasons for Dose Delay/Interruption: Diarrhea, % ([4]; human, in vivo): (4.3) %
Reasons for Dose Delay/Interruption: Other adverse events, % ([4]; human, in vivo): (17.4) %
Reasons for Dose Delay/Interruption: Thrombocytopenia, % ([4]; human, in vivo): (34.8) %
Reasons for Dose Reduction: Adverse Events, % ([4]; human, in vivo): (73.9) %
Reasons for Dose Reduction: Anemia, % ([4]; human, in vivo): (17.4) %
Reasons for Dose Reduction: Diarrhea, % ([4]; human, in vivo): (8.7) %
Reasons for Dose Reduction: Other adverse events, % ([4]; human, in vivo): (30.4) %
Reasons for Dose Reduction: Thrombocytopenia, % ([4]; human, in vivo): (47.8) %
Reasons for Dose Delay/Interruption: Other (non-adverse event), % ([4]; in vivo): (30.4) %
Reasons for Dose Reduction: Other (non-adverse event), % ([4]; in vivo): (17.4) %
Navitoclax EC50, estimate and 95% confidence interval ([5]; effect on platelets, fitted to data of 34 subjects): 3.61 (1.97; 6.58) mg/L
Navitoclax EC50, estimate [6]: 4.37 µg/mL
Ki [7]: ≤ 1 nM
EC50 [8]: ≤ 1000 nM
cell lines with potent single agent activity [9]: 10 of 22
cell killing activity [1]: cell killing activity
overcoming resistance to JAK-2 inhibitors [10]: ability to overcome that resistance
survival of mice with JAK-2-mutated tumors ([11]; combination of navitoclax and a JAK-2 inhibitor vs either agent alone): superior to either agent alone
growth of tumors ([11]; navitoclax added to a JAK-2 inhibitor): significantly slowing the growth of tumors
impact on navitoclax Cmax [12]: no impact
increase of navitoclax AUC∞ [12]: 1.55 fold
Navitoclax Emax ([13]; fixed, based on Kaefer et al.): 5

ruxolitinib dose reductions due to anemia [4, 16]: 18.2%
ruxolitinib dose reductions due to thrombocytopenia [4, 16]: 86.4%
subjects whose ruxolitinib dose was reduced to 10 mg BID ([4]; 25 subjects enrolled on ruxolitinib >10 mg BID): 88%
drop in platelet count ([5]; at average ruxolitinib concentration): ~36%
Ruxolitinib EC50, estimate [6]: 0.0144 µg/mL
SMILES: N#CC[C@H](C1CCCC1)n1cc(-c2ncnc3[nH]ccc23)cn1 [Ruxolitinib, (R)-3-(4-(7H-pyrrolo[2,3-d]pyrimidin-4-yl)-1H-pyrazol-1-yl)-3-cyclopentylpropanenitrile]
ruxolitinib factor for relative pseudo baseline platelet count [5]: 1.53 fold
BaselineFactor (ruxolitinib factor on baseline platelet count), estimate and 95% confidence interval ([5]; pseudo baseline at initiation of ruxolitinib relative to baseline at initiation of navitoclax): 1.53 (1.41; 1.65)
patients achieving spleen volume reduction of ≥35% (SVR35) [14]: approximately 40%
time after start of monotherapy within which SVR35 is typically observed [14]: ≤ 12 weeks
Ruxolitinib EC50 [13]: 0.0825 µg/mL
Ruxolitinib EC50 ([13]; listed as ruxolitinib): 0.08248 µg/mL
Ruxolitinib Emax ([13]; fixed, assumed (JAKAFI approval package)): 1
Ruxolitinib Emax [15]: 0.765 fixed
Ruxolitinib Emax ([15]; listed as ruxolitinib): 0.765
